Test in all cases: Protease Inhibition Assay
For assay [1], the target named is T1, Dimer of Gag-Pol polyprotein [489-587,Q496K,L499I,M525I,N526D,M535I,R546K,L552P,A560V,G562S,I573V,L579M,I582L] (Human immunodeficiency virus 1, UniProt P12497, A560V/G562S/I573V/I582L/L499I/L552P/L579M/M525I/M535I/N526D/Q496K/R546K).
T1 construct: 489-587
The protocol: (§1) Assay of HIV protease inhibition was performed by peptide cleavage using the substrate Val-Ser-Gln-Asn-beta-naphthylalanine*Pro-Ile-Val. Products of the cleavage reaction were quantified by HPLC detection, and data were fit to nonlinear least squares equations for determination of steady-state Michaelis-Menten kinetics.

Assay [2] deals with T2, Dimer of Gag-Pol polyprotein [489-587,Q496K,L499I,M535I,I543V,Q547E,L552P,I553V,V566I,V571F,I573V,L579M,I582L] (Human immunodeficiency virus 1, UniProt P12497, I543V/I553V/I573V/I582L/L499I/L552P/L579M/M535I/Q496K/Q547E/V566I/V571F).
T2 construct: 489-587
As for the experimental part: as §1

Assay [3] addresses T3, Dimer of Gag-Pol polyprotein [489-587,Q496K,L499I,N526S,R530K,M535I,I543V,I551V,L552P,A560V,V566I,V571A,L579M,I582L] (Human immunodeficiency virus 1, UniProt P12497, A560V/I543V/I551V/I582L/L499I/L552P/L579M/M535I/N526S/Q496K/R530K/V566I/V571A).
T3 construct: 489-587
As for the experimental part: as §1

The target in assay [4] is T4, Dimer of Gag-Pol polyprotein [489-587,Q496K] (Human immunodeficiency virus 1, UniProt P12497, Q496K).
T4 construct: 489-587
The conditions noted are these: pH 5.5; 30 °C. As for the experimental part: as §1

The structures appear in SMILES notation.

A word on the IC50: it is the point on the concentration scale where inhibition reaches its midpoint. A low value points to higher potency. For the molecule `O=C(N[C@H]1c2ccccc2OC[C@H]1O)[C@H](Cc1cccnc1)C[C@H](O)CN1CCN(Cc2cc3ccsc3s2)C[C@H]1C(=O)NCC(F)(F)F` [(2S)-1-[(2S,4R)-2-hydroxy-4-{[(3S,4S)-3-hydroxy-3,4-dihydro-2H-1-benzopyran-4-yl]carbamoyl}-4-(pyridin-3-ylmethyl)butyl]-4-{thieno[2,3-b]thiophen-2-ylmethyl}-N-(2,2,2-trifluoroethyl)piperazine-2-carboxamide], the IC50 in assay [1] worked out at 0.43 nM; in assay [2] it was 5 nM; in assay [3], 3.2 nM; in assay [4], 0.03 nM.
The matching figures for `O=C(N[C@H]1c2ccccc2OC[C@H]1O)[C@H](Cc1ccncc1)C[C@H](O)CN1CCN(Cc2cc3ccsc3s2)C[C@H]1C(=O)NCC(F)(F)F` [(2S)-1-[(2S,4R)-2-hydroxy-4-{[(3S,4S)-3-hydroxy-3,4-dihydro-2H-1-benzopyran-4-yl]carbamoyl}-4-(pyridin-4-ylmethyl)butyl]-4-{thieno[2,3-b]thiophen-2-ylmethyl}-N-(2,2,2-trifluoroethyl)piperazine-2-carboxamide]: 1.2 nM, 20 nM, 4.8 nM and 0.07 nM.

The values are drawn from BindingDB's records for doi:10.1016/s0960-894x(03)00680-2 (Merck Research Laboratories, 2003).
